Assay results reported in publication PMC6720605, “Bioactivity of Methoxylated and Methylated 1-Hydroxynaphthalene-2-Carboxanilides: Comparative Molecular Surface Analysis” (Molecules, 2019).
In brackets after ≈: the same amount, converted by molar mass. Like-named read-outs stand apart in the source and are kept apart here.

How the values were obtained:
[1] = tested on: photosynthetic electron transport (PET) in spinach (Spinacia oleracea L.) chloroplasts; assay: Inhibition of photosynthetic electron transport (PET) in spinach chloroplasts; type: biochemical
Description: The PET-inhibiting investigation using chloroplasts from spinach (Spinacia oleracea L.) was performed as described previously.

[2] = tested on: Mycobacterium tuberculosis H37Ra ATCC 25177; assay: In vitro antimycobacterial evaluation (MIC), M. tuberculosis; type: cell-based
Description: (§1) The evaluation of the in vitro antimycobacterial activity of the compounds was performed against Mycobacterium tuberculosis H37Ra ATCC 25177 and M. kansasii DSM 44162 by means of the methodology described recently [e.g., 1,3,4–6,15,43]. Isoniazid (Sigma) was used as the standard.

[3] = tested on: M. tuberculosis ATCC 25177/H37Ra; assay: MTT assay, viability of M. tuberculosis; type: cell-based, Mycobacterium tuberculosis; settings: at tested MIC concentration; 7 days
Description: Compounds were prepared as previously stated and diluted in MH or MB broth for S. aureus to achieve the desired final concentrations 0.5 and 1 µg/mL, respectively, for S. aureus ATCC 29213, and 2 and 8 µg/mL, respectively, for M. tuberculosis ATCC 25177/H37Ra. M. tuberculosis ATCC 25177/H37Ra was suspended in ODAC supplemented MB at 1.0 McFarland and then diluted 1:10, using MB as a diluent. The diluted mycobacteria (50 µL) were added to each well containing the compound to be tested. S. aureus bacterial suspension in sterile distilled water at 0.5 McFarland was diluted 1:3. Inocula were added to each well by multi-inoculator. Diluted mycobacteria in broth free from inhibiting compounds were used as the growth control. All compounds were prepared in duplicate. […] The plates were read at 570 nm. The absorbance readings from the cells grown in the presence of the tested compounds were compared with uninhibited cell growth to determine the relative percent inhibition. The percent inhibition was determined through the MTT assay. The percent viability is calculated through the comparison of a measured value and that of the uninhibited control: % viability = OD570E/OD570P × 100, where OD570E is the reading from the compound-exposed cells, while OD570P is the reading from the uninhibited cells (positive control). Cytotoxic potential is determined by a percent viability of <70% [37, 38, 39, 52].

[4] = tested on: methicillin-resistant S. aureus SA 630; assay: In vitro antibacterial evaluation (MIC), MRSA clinical isolate SA 630; type: cell-based, Staphylococcus aureus; settings: Staphylococcus aureus; clinical isolate MRSA SA 630; read-out: MIC MRSA SA 630
Description: (§2) The synthesized compounds were evaluated for in vitro antibacterial activity against representatives of multidrug-resistant bacteria, clinical isolates of methicillin-resistant Staphylococcus aureus (MRSA) 63718, SA 630 and SA 3202 [16, 17] that were obtained from the National Institute of Public Health (Prague, Czech Republic). S. aureus ATCC 29213 was used as the reference and quality control strain. Ampicillin (Sigma, St. Louis, MO, USA) was used as the standard. The screening was performed as described previously.

[5] = tested on: human monocytic leukaemia THP-1 cells; type: cell-based; settings: 30 µM highest concentration
Description: Human monocytic leukaemia THP-1 cells were obtained from the European Collection of Cell Cultures (ECACC, Salisbury, UK; Methods of characterization: DNA Fingerprinting (Multilocus probes) and isoenzyme analysis). Cell toxicity was determined using a Cytotoxicity Detection Kit^PLUS Lactate dehydrogenase (LDH) assay kit (Roche Diagnostics, Mannheim, Germany) according to the manufacturer’s instructions, as described previously.

[6] = tested on: methicillin-resistant S. aureus 63718; assay: In vitro antibacterial evaluation (MIC), MRSA clinical isolate 63718; type: cell-based, Staphylococcus aureus; settings: Staphylococcus aureus
Description: as §2

[7] = tested on: Staphylococcus aureus ATCC 29213; assay: In vitro antistaphylococcal susceptibility testing (MIC), reference strain; type: cell-based
Description: as §2

M. kansasii DSM 44162 = assay: In vitro antimycobacterial evaluation (MIC), M. kansasii; type: cell-based, Mycobacterium kansasii; settings: M. kansasii DSM 44162, read-out: MIC MK
Description: as §1

[8] = tested on: methicillin-resistant S. aureus SA 3202; assay: In vitro antibacterial evaluation (MIC), MRSA clinical isolate SA 3202; type: cell-based, Staphylococcus aureus; settings: Staphylococcus aureus; clinical isolate MRSA SA 3202; read-out: MIC MRSA SA 3202
Description: as §2

S. aureus ATCC 29213 = settings: Staphylococcus aureus, 24 h
[9] = Lipophilicity determination by HPLC (capacity factor k / calculated log k); type: physicochemical; settings: experimental lipophilicity
Description: The lipophilicity determination was performed as described by Kapustikova et al..

[10] = clinical isolate MRSA 63718, read-out: MIC MRSA 63718
[11] = one value for the three clinical MRSA strains (63718, SA 630, SA 3202), read-out: MIC against the MRSA strains
[12] = Mycobacterium kansasii, DSM44162

Structure (SMILES)	IC50 [1] [µM]	MIC [2] [µM]	viability of M. tuberculosis H37Ra (MTT) [3] [%]	MIC [4] [µM]	Tox LD50 [5] [µM]	MIC [6, 10] [µM]	MIC [6, 11] [µM]	MIC [7] [µM]	MIC ([7]; ATCC29213) [µM]	MIC (M. kansasii DSM 44162; [12]) [µM]	MIC [8] [µM]	viability of S. aureus ATCC 29213 (MTT) (S. aureus ATCC 29213) [%]	log k [9]	melting point [°C]	MIC (M. kansasii DSM 44162) [µM]
Cc1cc(C)cc(NC(=O)c2ccc3ccccc3c2O)c1 [Compound 13, N-(3,5-dimethylphenyl)-1-hydroxynaphthalene-2-carboxamide]	8.19	6.86 (≈ 2 µg/mL)	32	6.85 (≈ 2 µg/mL)	>30	6.85 (≈ 2 µg/mL)	6.85 (≈ 2 µg/mL)	3.43 (≈ 0.999 µg/mL)	3.43 (≈ 0.999 µg/mL)	27.4 (≈ 7.98 µg/mL)	6.85 (≈ 2 µg/mL)	19	1.0030	–	–
COc1ccc(Br)cc1NC(=O)c1ccc2ccccc2c1O [Compound 20, N-(5-Bromo-2-methoxyphenyl)-1-hydroxynaphthalene-2-carboxamide]	569	344 (≈ 128 µg/mL)	–	687 (≈ 256 µg/mL)	–	687 (≈ 256 µg/mL)	–	–	687 (≈ 256 µg/mL)	687 (≈ 256 µg/mL)	687 (≈ 256 µg/mL)	–	1.0432	157 to 159	–
COc1cc(F)cc(NC(=O)c2ccc3ccccc3c2O)c1 [Compound 23, N-(3-Fluoro-5-methoxyphenyl)-1-hydroxynaphthalene-2-carboxamide]	10.1	25.6 (≈ 7.97 µg/mL)	–	3.21 (≈ 0.999 µg/mL)	>30	3.21 (≈ 0.999 µg/mL)	3.21 (≈ 0.999 µg/mL)	1.60 (≈ 0.498 µg/mL)	1.6 (≈ 0.498 µg/mL)	12 (≈ 3.74 µg/mL)	3.21 (≈ 0.999 µg/mL)	49	0.7629	–	12.0 (≈ 3.74 µg/mL)
